Test results reported in PMC10257182, “Discovery of senolytics using machine learning” (Nature Communications, 2023).
Where two headings read alike, the source gives them in different places.

Experiments:
Type in all cases: cell-based, human
[1] = tested on: non-senescent control IMR90 ER:RAS cells; experiment: Nuclei count (Hoechst, high content imaging) senolytic assay, OIS model, non-senescent control cells; conditions: Homo sapiens
How it was run: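 Cells seeded, left 24 h, then dosed across a 10-point […] series (10 μM down to 10 nM) with DMSO control. After 72 h, wells were fixed, permeabilised and stained with Hoechst. Nuclei were counted by high-content imaging in senescent and non-senescent IMR90 ER:RAS cultures.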

[2] = tested on: senescent A549 cells (etoposide-induced); experiment: Nuclei count senolytic assay, therapy-induced senescence (TIS) model, senescent cells; conditions: Homo sapiens, A549, Senescent cells, mean, read-out: Mean % Cell Survival
How it was run: (§1)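 Senescence in A549 cells is induced by 48 h of 100 μM etoposide followed by three days without drug, alongside non-senescent controls. Cells are seeded, rested 24 h, then exposed 72 h to compounds (10 nM–10 μM final, […] steps, triplicate) before nuclei are counted by imaging.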

[3] = tested on: non-senescent control A549 cells; experiment: Nuclei count senolytic assay, TIS model, non-senescent control cells; conditions: Homo sapiens, A549, Control cells, mean, read-out: Mean % Cell Survival
How it was run: as §1

SMILES: Cc1cc2c(C(C)C)c(O)c(O)c(C=O)c2c(O)c1-c1c(C)cc2c(C(C)C)c(O)c(O)c(C=O)c2c1O [Gossypol, gossypol]
- viability at 10 µM ([1]; IMR-90, 72 h, Control, log (dose) [M] -5, 72 h, mean n=3 (Fig 3C), read-out: Mean % Cell Survival): 86.7%
- viability at 4.677 µM ([1]; IMR-90, 72 h, Control, log (dose) [M] -5.33, 72 h, mean n=3 (Fig 3C), read-out: Mean % Cell Survival): 131%
- viability at 2.188 µM ([1]; IMR-90, 72 h, Control, log (dose) [M] -5.66, 72 h, mean n=3 (Fig 3C), read-out: Mean % Cell Survival): 118%
- viability at 1 µM ([1]; IMR-90, 72 h, Control, log (dose) [M] -6, 72 h, mean n=3 (Fig 3C), read-out: Mean % Cell Survival): 120%
- viability at 0.4677 µM ([1]; IMR-90, 72 h, Control, log (dose) [M] -6.33, 72 h, mean n=3 (Fig 3C), read-out: Mean % Cell Survival): 135%
- viability at 0.2188 µM ([1]; IMR-90, 72 h, Control, log (dose) [M] -6.66, 72 h, mean n=3 (Fig 3C), read-out: Mean % Cell Survival): 146%
- viability at 0.1 µM ([1]; IMR-90, 72 h, Control, log (dose) [M] -7, 72 h, mean n=3 (Fig 3C), read-out: Mean % Cell Survival): 126%
- viability at 0.04677 µM ([1]; IMR-90, 72 h, Control, log (dose) [M] -7.33, 72 h, mean n=3 (Fig 3C), read-out: Mean % Cell Survival): 143%
- viability at 0.02188 µM ([1]; IMR-90, 72 h, Control, log (dose) [M] -7.66, 72 h, mean n=3 (Fig 3C), read-out: Mean % Cell Survival): 121%
- viability at 0.01 µM ([1]; IMR-90, 72 h, Control, log (dose) [M] -8, 72 h, mean n=3 (Fig 3C), read-out: Mean % Cell Survival): 109%
- viability at 4.68 µM ([1]; IMR-90, Control, log (dose) [M] -5.33, read-out: % Cell Survival): 113%
- viability at 2.19 µM ([1]; IMR-90, Control, log (dose) [M] -5.66, read-out: % Cell Survival): 99.8%
- viability at 1 µM ([1]; IMR-90, Control, log (dose) [M] -6, read-out: % Cell Survival): 101%
- viability at 0.219 µM ([1]; IMR-90, Control, log (dose) [M] -6.66, read-out: % Cell Survival): 94.1%
- viability at 0.1 µM ([1]; IMR-90, Control, log (dose) [M] -7, read-out: % Cell Survival): 94.9%
- viability at 0.04677 µM ([1]; IMR-90, Control, log (dose) [M] -7.33, read-out: % Cell Survival): 101%
- viability at 0.01 µM ([1]; IMR-90, Control, log (dose) [M] -8, read-out: % Cell Survival): 104%
- viability at 10 µM ([2]; log (dose) [M] -5): 110%
- viability at 4.68 µM ([2]; log (dose) [M] -5.33): 146%
- viability at 2.19 µM ([2]; log (dose) [M] -5.66): 166%
- viability at 1 µM ([2]; log (dose) [M] -6): 126%
- viability at 0.468 µM ([2]; log (dose) [M] -6.33): 74.4%
- viability at 0.219 µM ([2]; log (dose) [M] -6.66): 149%
- viability at 0.1 µM ([2]; log (dose) [M] -7): 112%
- viability at 0.0468 µM ([2]; log (dose) [M] -7.33): 69.1%
- viability at 0.0219 µM ([2]; log (dose) [M] -7.66): 107%
- viability at 0.01 µM ([2]; log (dose) [M] -8): 117%
- viability at 10 µM ([3]; log (dose) [M] -5): 117%
- viability at 4.68 µM ([3]; log (dose) [M] -5.33): 107%
- viability at 2.19 µM ([3]; log (dose) [M] -5.66): 100%
- viability at 1 µM ([3]; log (dose) [M] -6): 101%
- viability at 0.468 µM ([3]; log (dose) [M] -6.33): 108%
- viability at 0.219 µM ([3]; log (dose) [M] -6.66): 94.5%
- viability at 0.1 µM ([3]; log (dose) [M] -7): 68%
- viability at 0.0468 µM ([3]; log (dose) [M] -7.33): 101%
- viability at 0.01 µM ([3]; log (dose) [M] -8): 78.1%
